Values quoted from earlier work in patent publication US10272077B2, “Piperidinone carboxamide azaindane CGRP receptor antagonists” (Merck Sharp & Dohme Corp., priority 2010, dated 2019).
Ends that are not written are not given here.

What was measured:
[1] = marmoset (Doods et al. 2000)
[2] = control group (Petersen et al. 2005)
[3] = rats, prior administration (Williamson et al. 1997)
[4] = rat (Escott et al. 1995)

For NCCCC[C@H](NC(=O)[C@@H](Cc1cc(Br)c(O)c(Br)c1)NC(=O)N1CCC(N2Cc3ccccc3NC2=O)CC1)C(=O)N1CCN(c2ccncc2)CC1 [BIBN4096BS], the “effect on increase in facial blood flow” value [1] is given as “could be blocked”, the “treatment of acute attacks of migraine” value (clinical trials (Olesen et al. 2004)) is given as “effective in treating acute attacks of migraine” and the “prevention of headache induced by CGRP infusion” value [2] is given as “able to prevent headache induced by CGRP infusion”.

For O=C(N[C@@H]1CC[C@@H](c2cccc(F)c2F)CN(CC(F)(F)F)C1=O)N1CCC(n2c(=O)[nH]c3ncccc32)CC1 [telcagepant], the antimigraine effectiveness (phase III clinical trials, orally bioavailable) is given as “shown antimigraine effectiveness”.

In the case of “CGRP(8-37) (VTHRLAGLLSRSGGVVKNNFVPTNVGSKAF; ends and bridges not checked; UniProt P06881 90-119, looked up, fragment) [a peptide CGRP receptor antagonist]”, the “effect on increase of middle meningeal artery diameter” value [3] is listed as “blocked” and the “effect on increased facial blood flow” value [4] is listed as “inhibited”.
